molecular target: Histone deacetylase 1 (Homo sapiens, UniProt Q13547); assay: Inhibitory activity against human Histone deacetylase 1
Sequence (Q13547 whole entry): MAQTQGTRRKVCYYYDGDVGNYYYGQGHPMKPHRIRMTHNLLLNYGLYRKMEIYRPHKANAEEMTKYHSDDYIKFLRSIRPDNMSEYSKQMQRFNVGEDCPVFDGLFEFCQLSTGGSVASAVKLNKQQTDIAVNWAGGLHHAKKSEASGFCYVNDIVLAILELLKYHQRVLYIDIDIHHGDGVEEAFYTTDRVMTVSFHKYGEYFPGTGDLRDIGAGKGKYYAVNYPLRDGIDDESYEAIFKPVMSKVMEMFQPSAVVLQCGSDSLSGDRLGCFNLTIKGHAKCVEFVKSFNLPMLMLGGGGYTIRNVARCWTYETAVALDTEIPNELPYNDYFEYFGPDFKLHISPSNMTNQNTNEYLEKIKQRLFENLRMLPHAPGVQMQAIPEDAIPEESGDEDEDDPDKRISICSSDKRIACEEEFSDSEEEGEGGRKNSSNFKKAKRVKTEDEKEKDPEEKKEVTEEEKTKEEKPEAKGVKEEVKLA

| IC50 | Structure (SMILES) |
| --- | --- |
| 1 nM | O=C(/C=C/c1cccc(C(C(=O)Nc2ccccc2)C(=O)Nc2ccccc2)c1)NO |
| 2.5 nM | O=C(CCCCCC(NC(=O)OCc1ccccc1)C(=O)Nc1cccc2cccnc12)NO (stereo not drawn) |
| 1 nM | O=C(CCCCCC(C(=O)Nc1ccc2ncccc2c1)C(=O)Nc1ccc2ncccc2c1)NO |

Reference: ChEMBL document CHEMBL1138830, “On the function of the 14 A long internal cavity of histone deacetylase-like protein: implications for the design of histone deacetylase inhibitors” (J Med Chem, 2004)
